Like-named read-outs stand apart in the source and are kept apart here. One block for each molecule: values may come before it.
Assays:
Test in all cases: biochemical
Set-up in all cases: DiscoveRx KINOMEscan active site-directed competition binding; percent of control kinase bound to immobilised ligand
AAK1 = AAK1 (Homo sapiens, UniProt Q2M2I8)
[1] = target: T1, ABL1(H396P)-nonphosphorylated (Homo sapiens, UniProt P00519, H396P)
T1 construct: nonphosphorylated

PRKG2 = target: T2, PRKG2 (Homo sapiens, UniProt Q13237)
T2 sequence (Q13237 1-762): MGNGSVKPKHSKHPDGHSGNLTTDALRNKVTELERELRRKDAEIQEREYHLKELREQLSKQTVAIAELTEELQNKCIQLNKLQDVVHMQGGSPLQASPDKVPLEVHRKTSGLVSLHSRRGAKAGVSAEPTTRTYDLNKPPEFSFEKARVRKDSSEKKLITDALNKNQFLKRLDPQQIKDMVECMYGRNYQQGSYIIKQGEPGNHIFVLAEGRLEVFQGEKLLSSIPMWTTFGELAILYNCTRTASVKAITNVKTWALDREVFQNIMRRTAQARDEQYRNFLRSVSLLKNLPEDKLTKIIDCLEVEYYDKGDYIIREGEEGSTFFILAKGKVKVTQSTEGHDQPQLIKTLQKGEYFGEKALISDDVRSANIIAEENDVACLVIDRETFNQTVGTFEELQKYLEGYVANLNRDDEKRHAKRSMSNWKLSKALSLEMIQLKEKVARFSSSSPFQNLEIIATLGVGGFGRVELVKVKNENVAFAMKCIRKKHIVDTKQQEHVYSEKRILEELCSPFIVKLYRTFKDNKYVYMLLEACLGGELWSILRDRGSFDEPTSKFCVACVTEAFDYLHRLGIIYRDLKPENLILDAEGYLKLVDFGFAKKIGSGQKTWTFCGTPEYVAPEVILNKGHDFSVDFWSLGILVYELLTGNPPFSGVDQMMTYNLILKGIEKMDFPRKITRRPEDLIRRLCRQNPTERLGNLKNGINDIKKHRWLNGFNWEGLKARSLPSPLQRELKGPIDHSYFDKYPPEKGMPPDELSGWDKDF

MELK = MELK (Homo sapiens, UniProt Q14680)
[2] = target: T3, ABL1(Y253F)-phosphorylated (Homo sapiens, UniProt P00519, Y253F)
T3 construct: phosphorylated

TNK2 = TNK2 (Homo sapiens, UniProt Q07912)
CSNK1E = CSNK1E (Homo sapiens, UniProt P49674)
CLK4 = CLK4 (Homo sapiens, UniProt Q9HAZ1)
HIPK4 = target: T4, HIPK4 (Homo sapiens, UniProt Q8NE63)
T4 sequence (Q8NE63 1-616): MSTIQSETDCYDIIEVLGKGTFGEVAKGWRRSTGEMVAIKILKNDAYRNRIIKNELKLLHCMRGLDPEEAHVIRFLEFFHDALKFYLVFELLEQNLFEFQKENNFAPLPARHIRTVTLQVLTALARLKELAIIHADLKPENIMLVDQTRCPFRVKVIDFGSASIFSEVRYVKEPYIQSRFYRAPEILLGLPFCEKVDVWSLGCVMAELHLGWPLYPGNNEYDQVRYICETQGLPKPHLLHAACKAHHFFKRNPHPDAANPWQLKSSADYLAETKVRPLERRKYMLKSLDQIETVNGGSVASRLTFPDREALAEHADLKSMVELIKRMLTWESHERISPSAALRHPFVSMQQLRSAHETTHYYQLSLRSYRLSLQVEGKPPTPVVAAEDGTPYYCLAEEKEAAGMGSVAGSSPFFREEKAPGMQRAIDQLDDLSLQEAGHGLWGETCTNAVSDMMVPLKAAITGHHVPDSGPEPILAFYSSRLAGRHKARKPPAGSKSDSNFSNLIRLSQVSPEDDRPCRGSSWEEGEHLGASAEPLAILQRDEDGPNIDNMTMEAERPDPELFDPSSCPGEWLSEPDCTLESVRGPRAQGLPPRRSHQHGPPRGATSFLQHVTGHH

LIMK1 = LIMK1 (Homo sapiens, UniProt P53667)
TRPM6 = TRPM6 (Homo sapiens, UniProt Q9BX84)
RIOK2 = RIOK2 (Homo sapiens, UniProt Q9BVS4)
[3] = target: T5, ABL1(Q252H)-nonphosphorylated (Homo sapiens, UniProt P00519, Q252H)
T5 construct: nonphosphorylated

ERK1 = target: T6, ERK1 (Homo sapiens, UniProt P27361)
T6 construct: gene MAPK3

PIM2 = PIM2 (Homo sapiens, UniProt Q9P1W9)
[4] = read-out: Niraparib (MK-4827) / %Ctrl @ 10000nM
[5] = read-out: Olaparib / %Ctrl @ 10000nM
[6] = read-out: Rucaparib / %Ctrl @ 10000nM, binding competition, % of control
[7] = read-out: Talazoparib (BMN 673) / %Ctrl @ 10000nM

Chain of TNK2 (Q07912 whole entry): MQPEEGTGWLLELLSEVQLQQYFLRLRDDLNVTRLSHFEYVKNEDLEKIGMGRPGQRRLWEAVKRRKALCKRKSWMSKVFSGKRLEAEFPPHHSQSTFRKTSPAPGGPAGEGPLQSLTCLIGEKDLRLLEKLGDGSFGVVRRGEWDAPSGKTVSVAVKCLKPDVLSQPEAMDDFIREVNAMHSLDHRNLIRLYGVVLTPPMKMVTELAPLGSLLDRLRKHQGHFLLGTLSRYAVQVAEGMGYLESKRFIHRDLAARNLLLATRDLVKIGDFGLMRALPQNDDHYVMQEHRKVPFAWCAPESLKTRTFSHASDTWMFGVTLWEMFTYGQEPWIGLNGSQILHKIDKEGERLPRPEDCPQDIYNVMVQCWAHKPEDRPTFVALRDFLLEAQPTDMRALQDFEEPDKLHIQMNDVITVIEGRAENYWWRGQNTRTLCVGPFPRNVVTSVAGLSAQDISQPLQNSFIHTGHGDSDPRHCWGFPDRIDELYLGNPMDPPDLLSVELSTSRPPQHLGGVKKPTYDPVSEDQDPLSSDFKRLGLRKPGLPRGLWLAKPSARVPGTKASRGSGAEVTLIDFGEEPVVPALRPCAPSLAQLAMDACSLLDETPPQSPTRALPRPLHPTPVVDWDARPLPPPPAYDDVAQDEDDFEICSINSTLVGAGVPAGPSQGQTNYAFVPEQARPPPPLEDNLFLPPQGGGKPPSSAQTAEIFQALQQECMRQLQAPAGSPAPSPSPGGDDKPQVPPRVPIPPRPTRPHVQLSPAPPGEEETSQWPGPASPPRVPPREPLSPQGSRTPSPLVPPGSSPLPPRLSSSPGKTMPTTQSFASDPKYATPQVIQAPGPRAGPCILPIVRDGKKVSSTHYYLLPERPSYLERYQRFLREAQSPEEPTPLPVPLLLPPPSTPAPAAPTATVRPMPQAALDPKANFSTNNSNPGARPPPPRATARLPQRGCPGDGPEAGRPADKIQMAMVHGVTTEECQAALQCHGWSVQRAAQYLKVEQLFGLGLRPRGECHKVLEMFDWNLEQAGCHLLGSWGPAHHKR
Chain of CLK4 (Q9HAZ1 whole entry): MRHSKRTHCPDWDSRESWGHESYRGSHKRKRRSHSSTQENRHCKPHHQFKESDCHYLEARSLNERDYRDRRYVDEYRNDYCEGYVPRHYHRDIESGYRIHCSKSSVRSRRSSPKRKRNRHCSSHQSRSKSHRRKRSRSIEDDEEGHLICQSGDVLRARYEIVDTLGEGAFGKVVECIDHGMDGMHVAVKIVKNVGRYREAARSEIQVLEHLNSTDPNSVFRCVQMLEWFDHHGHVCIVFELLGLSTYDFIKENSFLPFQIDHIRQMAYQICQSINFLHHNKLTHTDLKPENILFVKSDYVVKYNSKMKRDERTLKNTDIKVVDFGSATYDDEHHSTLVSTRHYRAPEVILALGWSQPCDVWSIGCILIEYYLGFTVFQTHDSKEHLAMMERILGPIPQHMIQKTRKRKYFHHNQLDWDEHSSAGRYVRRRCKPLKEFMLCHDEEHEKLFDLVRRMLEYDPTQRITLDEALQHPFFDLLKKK
T6 sequence (P27361 whole entry): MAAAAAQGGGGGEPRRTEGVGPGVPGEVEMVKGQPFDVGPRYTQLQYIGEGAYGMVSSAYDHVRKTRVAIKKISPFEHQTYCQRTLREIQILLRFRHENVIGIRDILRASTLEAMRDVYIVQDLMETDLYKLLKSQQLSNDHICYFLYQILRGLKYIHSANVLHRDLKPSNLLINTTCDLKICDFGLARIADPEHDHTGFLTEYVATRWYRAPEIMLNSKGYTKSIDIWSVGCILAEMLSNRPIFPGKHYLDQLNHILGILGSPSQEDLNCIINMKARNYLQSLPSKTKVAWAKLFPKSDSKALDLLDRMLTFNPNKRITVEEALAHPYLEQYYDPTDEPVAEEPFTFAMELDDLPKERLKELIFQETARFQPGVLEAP
Chain of RIOK2 (Q9BVS4 whole entry): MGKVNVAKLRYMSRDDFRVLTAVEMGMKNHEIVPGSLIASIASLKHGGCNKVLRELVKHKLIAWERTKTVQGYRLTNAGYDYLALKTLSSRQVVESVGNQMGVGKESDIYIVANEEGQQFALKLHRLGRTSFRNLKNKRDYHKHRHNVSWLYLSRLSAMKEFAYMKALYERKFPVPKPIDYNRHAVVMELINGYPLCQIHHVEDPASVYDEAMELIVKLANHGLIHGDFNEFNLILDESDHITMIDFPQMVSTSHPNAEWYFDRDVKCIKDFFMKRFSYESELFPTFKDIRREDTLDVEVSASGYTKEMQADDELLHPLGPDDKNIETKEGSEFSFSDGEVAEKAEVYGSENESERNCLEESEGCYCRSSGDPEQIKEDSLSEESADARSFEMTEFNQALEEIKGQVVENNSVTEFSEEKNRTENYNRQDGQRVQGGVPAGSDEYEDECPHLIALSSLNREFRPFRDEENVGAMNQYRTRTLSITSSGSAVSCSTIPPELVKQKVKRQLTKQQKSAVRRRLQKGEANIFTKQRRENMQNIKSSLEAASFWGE
Chain of TRPM6 (Q9BX84 whole entry): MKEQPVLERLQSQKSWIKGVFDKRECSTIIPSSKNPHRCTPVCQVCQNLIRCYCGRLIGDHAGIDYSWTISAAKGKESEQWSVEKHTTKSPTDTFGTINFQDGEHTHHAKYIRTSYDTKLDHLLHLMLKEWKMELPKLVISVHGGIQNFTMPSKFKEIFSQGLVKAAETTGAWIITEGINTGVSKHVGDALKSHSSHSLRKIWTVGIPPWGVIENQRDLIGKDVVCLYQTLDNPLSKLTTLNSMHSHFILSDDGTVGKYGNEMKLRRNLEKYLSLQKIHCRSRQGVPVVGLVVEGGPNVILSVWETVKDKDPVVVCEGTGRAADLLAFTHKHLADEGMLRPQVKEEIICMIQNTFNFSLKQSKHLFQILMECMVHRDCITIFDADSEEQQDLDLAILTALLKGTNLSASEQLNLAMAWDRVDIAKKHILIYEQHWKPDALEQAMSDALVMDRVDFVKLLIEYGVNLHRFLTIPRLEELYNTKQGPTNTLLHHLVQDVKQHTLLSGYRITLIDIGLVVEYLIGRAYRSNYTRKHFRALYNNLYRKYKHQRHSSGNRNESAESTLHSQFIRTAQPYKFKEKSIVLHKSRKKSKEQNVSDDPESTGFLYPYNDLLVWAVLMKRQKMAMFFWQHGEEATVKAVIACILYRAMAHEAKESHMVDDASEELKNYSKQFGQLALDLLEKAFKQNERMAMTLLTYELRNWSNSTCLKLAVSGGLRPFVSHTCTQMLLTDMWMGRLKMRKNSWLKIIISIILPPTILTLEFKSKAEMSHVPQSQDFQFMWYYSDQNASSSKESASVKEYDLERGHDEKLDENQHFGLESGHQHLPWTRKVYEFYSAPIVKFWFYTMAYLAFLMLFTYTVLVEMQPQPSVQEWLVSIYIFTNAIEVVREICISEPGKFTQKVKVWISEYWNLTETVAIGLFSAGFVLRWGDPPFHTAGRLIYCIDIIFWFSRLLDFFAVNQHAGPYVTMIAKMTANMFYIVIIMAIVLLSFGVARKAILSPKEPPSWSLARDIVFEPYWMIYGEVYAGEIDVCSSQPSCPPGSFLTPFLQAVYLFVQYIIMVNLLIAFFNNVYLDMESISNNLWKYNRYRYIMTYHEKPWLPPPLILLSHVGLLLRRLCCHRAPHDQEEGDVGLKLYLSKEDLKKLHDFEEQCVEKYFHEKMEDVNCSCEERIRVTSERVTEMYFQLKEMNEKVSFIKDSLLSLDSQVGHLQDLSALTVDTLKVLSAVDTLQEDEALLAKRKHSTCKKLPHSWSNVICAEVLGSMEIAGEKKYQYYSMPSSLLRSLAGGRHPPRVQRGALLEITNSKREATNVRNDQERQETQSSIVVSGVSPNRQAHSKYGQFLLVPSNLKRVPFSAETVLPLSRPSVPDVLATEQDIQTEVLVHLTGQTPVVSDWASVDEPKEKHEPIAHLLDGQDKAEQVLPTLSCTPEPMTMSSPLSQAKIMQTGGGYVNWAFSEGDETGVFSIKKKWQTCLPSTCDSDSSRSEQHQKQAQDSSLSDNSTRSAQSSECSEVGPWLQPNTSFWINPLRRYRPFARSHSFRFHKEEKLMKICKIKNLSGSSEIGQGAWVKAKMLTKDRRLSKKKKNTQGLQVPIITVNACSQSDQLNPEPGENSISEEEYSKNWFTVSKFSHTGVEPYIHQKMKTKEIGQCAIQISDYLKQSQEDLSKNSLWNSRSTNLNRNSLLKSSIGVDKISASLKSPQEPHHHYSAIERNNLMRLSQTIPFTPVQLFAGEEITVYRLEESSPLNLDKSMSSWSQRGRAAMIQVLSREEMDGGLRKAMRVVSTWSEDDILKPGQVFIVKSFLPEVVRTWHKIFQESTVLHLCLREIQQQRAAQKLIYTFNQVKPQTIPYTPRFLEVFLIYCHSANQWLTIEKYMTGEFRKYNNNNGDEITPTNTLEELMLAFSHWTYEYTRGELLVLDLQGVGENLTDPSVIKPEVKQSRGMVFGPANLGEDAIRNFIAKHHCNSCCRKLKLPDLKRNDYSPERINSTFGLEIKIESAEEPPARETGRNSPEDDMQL
Chain of CSNK1E (P49674 whole entry): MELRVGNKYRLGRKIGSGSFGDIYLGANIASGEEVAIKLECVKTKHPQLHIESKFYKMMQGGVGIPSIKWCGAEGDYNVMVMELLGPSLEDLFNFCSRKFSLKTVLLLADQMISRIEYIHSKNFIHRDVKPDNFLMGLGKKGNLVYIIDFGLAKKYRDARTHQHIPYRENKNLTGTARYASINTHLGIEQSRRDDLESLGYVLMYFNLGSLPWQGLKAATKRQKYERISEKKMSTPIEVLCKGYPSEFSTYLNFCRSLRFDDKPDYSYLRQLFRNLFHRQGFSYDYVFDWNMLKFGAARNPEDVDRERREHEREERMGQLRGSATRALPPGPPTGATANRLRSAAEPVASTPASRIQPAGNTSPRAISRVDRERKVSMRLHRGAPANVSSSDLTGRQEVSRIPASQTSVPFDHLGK

SMILES: NC(=O)c1cccc2cn(-c3ccc([C@@H]4CCCNC4)cc3)nc12 [Niraparib]
percent of control binding at 10 µM (AAK1; [4]): 83%
percent of control binding at 10 µM [1, 4]: 65%
percent of control binding at 10 µM (PRKG2; [4]): 97%
percent of control binding at 10 µM (MELK; [4]): 70%
percent of control binding at 10 µM [2, 4]: 57%
percent of control binding at 10 µM (TNK2; [4]): 91%
percent of control binding at 10 µM (CSNK1E; [4]): 57%
percent of control binding at 10 µM (CLK4; [4]): 52%
percent of control binding at 10 µM (HIPK4; [4]): 80%
percent of control binding at 10 µM (LIMK1; [4]): 82%
percent of control binding at 10 µM (TRPM6; [4]): 71%
percent of control binding at 10 µM (RIOK2; [4]): 67%
percent of control binding at 10 µM [3, 4]: 58%
percent of control binding at 10 µM (ERK1; [4]): 98%
percent of control binding at 10 µM (PIM2; [4]): 13%

percent of control binding at 10 µM (AAK1; [5]): 100%
percent of control binding at 10 µM [1, 5]: 82%
percent of control binding at 10 µM (PRKG2; [5]): 85%
percent of control binding at 10 µM (MELK; [5]): 90%
percent of control binding at 10 µM [2, 5]: 79%
percent of control binding at 10 µM (TNK2; [5]): 95%
percent of control binding at 10 µM (CSNK1E; [5]): 90%
percent of control binding at 10 µM (CLK4; [5]): 92%
percent of control binding at 10 µM (HIPK4; [5]): 100%
percent of control binding at 10 µM (LIMK1; [5]): 100%
percent of control binding at 10 µM (TRPM6; [5]): 84%
percent of control binding at 10 µM (RIOK2; [5]): 84%
percent of control binding at 10 µM [3, 5]: 98%
percent of control binding at 10 µM (ERK1; [5]): 98%
percent of control binding at 10 µM (PIM2; [5]): 100%
SMILES: O=C(c1cc(Cc2n[nH]c(=O)c3ccccc23)ccc1F)N1CCN(C(=O)C2CC2)CC1 [Olaparib]

percent of control binding at 10 µM (AAK1; [6]): 82%
percent of control binding at 10 µM [1, 6]: 68%
percent of control binding at 10 µM (PRKG2; [6]): 60%
percent of control binding at 10 µM (MELK; [6]): 76%
percent of control binding at 10 µM [2, 6]: 69%
percent of control binding at 10 µM (TNK2; [6]): 100%
percent of control binding at 10 µM (CSNK1E; [6]): 76%
percent of control binding at 10 µM (CLK4; [6]): 40%
percent of control binding at 10 µM (HIPK4; [6]): 51%
percent of control binding at 10 µM (LIMK1; [6]): 100%
percent of control binding at 10 µM (TRPM6; [6]): 77%
percent of control binding at 10 µM (RIOK2; [6]): 69%
percent of control binding at 10 µM [3, 6]: 62%
percent of control binding at 10 µM (ERK1; [6]): 100%
percent of control binding at 10 µM (PIM2; [6]): 36%
SMILES: CNCc1ccc(-c2[nH]c3cc(F)cc4c3c2CCNC4=O)cc1 [Rucaparib]

percent of control binding at 10 µM (AAK1; [7]): 93%
percent of control binding at 10 µM [1, 7]: 92%
percent of control binding at 10 µM (PRKG2; [7]): 100%
percent of control binding at 10 µM (MELK; [7]): 94%
percent of control binding at 10 µM [2, 7]: 100%
percent of control binding at 10 µM (TNK2; [7]): 97%
percent of control binding at 10 µM (CSNK1E; [7]): 69%
percent of control binding at 10 µM (CLK4; [7]): 100%
percent of control binding at 10 µM (HIPK4; [7]): 100%
percent of control binding at 10 µM (LIMK1; [7]): 99%
percent of control binding at 10 µM (TRPM6; [7]): 100%
percent of control binding at 10 µM (RIOK2; [7]): 100%
percent of control binding at 10 µM [3, 7]: 73%
percent of control binding at 10 µM (ERK1; [7]): 87%
percent of control binding at 10 µM (PIM2; [7]): 98%
SMILES: Cn1ncnc1[C@H]1c2n[nH]c(=O)c3cc(F)cc(c23)N[C@@H]1c1ccc(F)cc1 [Talazoparib]
